# Source: patent US7998974B2, “Fused heterocyclic compounds and their use as sirtuin modulators” (Sirtris Pharmaceuticals, Inc., priority 2005, dated 2011)
# Molecular target: T1, SIRT1 (Homo sapiens, UniProt Q96EB6)
# T1 sequence (Q96EB6 1-747): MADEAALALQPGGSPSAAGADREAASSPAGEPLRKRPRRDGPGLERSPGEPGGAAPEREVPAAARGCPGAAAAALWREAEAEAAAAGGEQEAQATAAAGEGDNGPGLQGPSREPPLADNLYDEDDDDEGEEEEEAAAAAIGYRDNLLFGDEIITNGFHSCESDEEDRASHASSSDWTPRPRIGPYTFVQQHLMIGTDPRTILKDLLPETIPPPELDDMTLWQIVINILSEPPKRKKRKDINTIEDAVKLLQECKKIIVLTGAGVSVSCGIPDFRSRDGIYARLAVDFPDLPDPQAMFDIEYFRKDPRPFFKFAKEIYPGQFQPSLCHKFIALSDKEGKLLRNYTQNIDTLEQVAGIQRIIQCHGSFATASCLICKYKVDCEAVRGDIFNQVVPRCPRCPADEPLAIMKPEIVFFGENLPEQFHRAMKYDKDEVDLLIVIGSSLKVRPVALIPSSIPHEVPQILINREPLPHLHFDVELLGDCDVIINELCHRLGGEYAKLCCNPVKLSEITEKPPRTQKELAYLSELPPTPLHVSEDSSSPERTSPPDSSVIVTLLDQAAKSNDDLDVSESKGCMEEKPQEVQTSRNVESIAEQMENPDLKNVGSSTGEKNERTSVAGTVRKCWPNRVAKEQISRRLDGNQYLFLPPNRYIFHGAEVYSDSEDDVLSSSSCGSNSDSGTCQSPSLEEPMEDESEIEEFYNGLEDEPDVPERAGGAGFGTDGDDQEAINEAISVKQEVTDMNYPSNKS
# Assay: Fluorescence polarization or mass spectrometry based assay to identify modulators of SIRT1 activity;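 further: deacetylation of a fluorophore-tagged p53-derived acetyl peptide by SIRT1, detected as fluorescence polarization after trypsin cleavage and streptavidin binding, compounds tested at 11 doses from 0.7 to 100 µM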
# Assay type: biochemical
# Details: for EC50: activation of SIRT1 (Table 3), read-out: ED50 (the source's name)
EC50 [µM],IC50 (inhibition of SIRT1 (Table 4)) [µM],Compound
101 to 150,,Cc1[nH]c2ccccc2c1/C=C(\C#N)c1nc2ccccc2[nH]1 [Compound 1]
> 150,,O=C(Nc1cccc(-c2nc3ccccc3[nH]2)c1)c1cccnc1 [Compound 3]
51 to 100,,Nc1ccc(C(=O)Nc2ccc3[nH]c(-c4ccccc4)nc3c2)cc1 [Compound 4]
< 50,,Cc1csc(NC(=O)c2ccccc2C(=O)O)c1-c1nc2ccccc2s1 [Compound 6]
101 to 150,,COc1ccccc1NC(=O)Nc1nn(C)c2cccc(OC)c12 [Compound 7]
> 150,,COc1cccc2c1c(NC(=O)c1cc3ccccc3s1)nn2C [Compound 8]
< 50,,N#C/C(=C\c1ccc(-c2ccc(C(=O)O)cc2)o1)c1nc2ccccc2[nH]1 [Compound 9]
< 50,,COc1ccc2nc3s/c(=C\c4ccc(-c5ccc(Cl)c(C(=O)O)c5)o4)c(=O)n3c2c1 [Compound 10]
51 to 100,,COc1cc(C(=O)Nc2cccc(-c3nc4ccccc4[nH]3)c2)cc(OC)c1OC [Compound 11]
51 to 100,,N#CC(C(=O)c1cc2ccccc2o1)c1nc2ccccc2s1 (stereo not drawn) [Compound 12]
101 to 150,,N#Cc1cc(Oc2nc3ccccc3s2)c(N2CCOCC2)cc1C#N [Compound 13]
51 to 100,,Nc1ccc2nc(-c3ccc(-c4nc5ccc(N)cc5[nH]4)cc3)[nH]c2c1 [Compound 15]
51 to 100,,Nc1ccc2[nH]c(-c3cccc(-c4nc5cc(N)ccc5[nH]4)c3)nc2c1 [Compound 16]
> 150,,Cc1[nH]c2ccccc2c1/C=C/c1nc2ccccc2c(=O)[nH]1 [Compound 17]
51 to 100,,Nc1ccc2[nH]c(/C=C/c3nc4cc(N)ccc4[nH]3)nc2c1 [Compound 18]
101 to 150,,Cc1ccsc1/C=C(\C#N)c1nc2ccccc2[nH]1 [Compound 19]
101 to 150,,COC(=O)c1[nH]c2cc(OC)c(OC)cc2c1NC(=O)c1cccs1 [Compound 20]
51 to 100,,O=C(Nc1c(C(=O)O)[nH]c2ccc(Br)cc12)c1ccc(F)cc1 [Compound 21]
> 150,,COC(=O)c1[nH]c2cc(OC)c(OC)cc2c1NC(=O)c1cccc(OC)c1 [Compound 22]

EC50 [µM],IC50 (inhibition of SIRT1 (Table 4)) [µM],Compound
> 150,,COc1cccc(C(=O)Nc2cccc(-c3cn4ccccc4n3)c2)c1 [Compound 23]
101 to 150,,COc1cc(/C=C(\C#N)c2nc3ccccc3[nH]2)cc(OC)c1OC [Compound 24]
51 to 100,,O=C(Nc1cccc(-c2nc3ccccc3[nH]2)c1)c1ccco1 [Compound 25]
101 to 150,,Cc1cccc(-c2nc3c(C(=O)NC4CCC(N)CC4)cccn3c2NCc2ccccc2)c1 (stereo not drawn) [Compound 26]
51 to 100,,CC(=O)Nc1ccc(-c2nc3c(C(=O)NC4CCC(N)CC4)cccn3c2NC2CCCCC2)cc1 (stereo not drawn) [Compound 27]
101 to 150,,CCCCNc1c(-c2ccc(OC)c([N+](=O)[O-])c2)nc2c(C(=O)NC(CC(=O)O)C3CCCCC3)cccn12 (stereo not drawn) [Compound 28]
> 150,,COc1ccc(-c2nc3c(C(=O)NC(CC(=O)O)C4CCCCC4)cccn3c2NCc2ccccc2)cc1[N+](=O)[O-] (stereo not drawn) [Compound 31]
101 to 150,,CCCCNc1c(-c2ccc(OC)c([N+](=O)[O-])c2)nc2c(C(=O)NCCCN)cccn12 [Compound 33]
101 to 150,,COc1ccc(-c2nc3c(C(=O)NCCCN)cccn3c2NCc2ccccc2)cc1[N+](=O)[O-] [Compound 34]
51 to 100,,CC(=O)Nc1ccc(-c2nc3c(C(=O)NCc4cccc(CN)c4)cccn3c2NCc2ccccc2)cc1 [Compound 35]
101 to 150,,CC(=O)Nc1ccc(-c2nc3c(C(=O)NC(CC(=O)O)C4CCCCC4)cccn3c2NC(C)(C)C)cc1 (stereo not drawn) [Compound 36]
> 150,,O=C(O)CC(NC(=O)c1cccn2c(NCc3ccccc3)c(-c3ccc4ccccc4c3)nc12)C1CCCCC1 (stereo not drawn) [Compound 38]
101 to 150,,COc1ccc(-c2nc3cc(C(=O)NC(CC(=O)O)c4ccc(C)cc4)ccn3c2NC2CCCCC2)cc1OC (stereo not drawn) [Compound 39]
101 to 150,,COc1ccc(-c2nc3cc(C(=O)NCc4cccc(CN)c4)ccn3c2NC2CCCCC2)cc1[N+](=O)[O-] [Compound 40]
101 to 150,,CC(=O)Nc1ccc(-c2nc3c(C(=O)NC(C)C(=O)NCCCN4CCCC4=O)cccn3c2NCc2ccccc2)cc1 (stereo not drawn) [Compound 41]
51 to 100,,N#CCCNC(=O)CNC(=O)c1cccn2c(NCC3CCCO3)c(-c3ccc(Cl)cc3)nc12 (stereo not drawn) [Compound 42]
101 to 150,,COc1ccc(-c2nc3c(C(=O)NC(C)C(=O)NCCC#N)cccn3c2NCC2CCCO2)cc1 (stereo not drawn) [Compound 44]
51 to 100,,COc1cccc(-c2nc3c(C(=O)NC(C)C(=O)NCCC#N)cccn3c2NC2CCCCC2)c1 (stereo not drawn) [Compound 46]
51 to 100,,CC(=O)Nc1ccc(-c2nc3c(C(=O)NCC(=O)NCCC#N)cccn3c2NCc2ccccc2)cc1 [Compound 47]

EC50 [µM],IC50 (inhibition of SIRT1 (Table 4)) [µM],Compound
101 to 150,,Cc1nn(C)c(Cl)c1-c1nc2c(C(=O)NC(C)C(=O)NCCC#N)cccn2c1NCc1ccccc1 (stereo not drawn) [Compound 48]
51 to 100,,COCCNC(=O)c1cccn2c(NCc3ccccc3)c(-c3ccc(NC(=O)N4CCOCC4)cc3)nc12 [Compound 49]
> 150,,COCCNC(=O)c1cccn2c(NCc3ccccc3)c(-c3ccc(NC(=O)c4ccco4)cc3)nc12 [Compound 50]
51 to 100,,COCCNC(=O)c1cccn2c(NCc3ccccc3)c(-c3ccc(NC(=O)C4CC4)cc3)nc12 [Compound 51]
101 to 150,,CC(=O)NCCNC(=O)c1cccn2c(NCc3ccccc3)c(-c3ccc(NC(=O)c4ccco4)cc3)nc12 [Compound 52]
101 to 150,,O=C(NCCN1CCNC1=O)c1cccn2c(NCc3ccccc3)c(-c3ccc(NC(=O)N4CCOCC4)cc3)nc12 [Compound 53]
> 150,,O=C(Nc1ccc(-c2nc3c(C(=O)NCCN4CCNC4=O)cccn3c2NCc2ccccc2)cc1)c1ccco1 [Compound 54]
> 150,,Cc1cc(C(=O)Nc2ccc(-c3nc4c(C(=O)NCCN5CCNC5=O)cccn4c3NCc3ccccc3)cc2)no1 [Compound 55]
> 150,,CCCCNc1c(-c2ccc(NC(=O)CC(C)C)cc2)nc2c(C(=O)NCCN3CCNC3=O)cccn12 [Compound 56]
> 150,,CC(C)CC(=O)Nc1ccc(-c2nc3c(C(=O)NCCN4CCNC4=O)cccn3c2NC(C)(C)C)cc1 [Compound 57]
< 50,,O=C(NCCCN1CCCC1=O)c1cccn2c(NC3CCCCC3)c(-c3ccc(NC(=O)N4CCOCC4)cc3)nc12 [Compound 58]
101 to 150,,O=C(Nc1ccc(-c2nc3c(C(=O)NCCCN4CCCC4=O)cccn3c2NC2CCCCC2)cc1)c1ccco1 [Compound 59]
51 to 100,,O=C(NCCCN1CCCC1=O)c1cccn2c(NC3CCCCC3)c(-c3ccc(NC(=O)C4CC4)cc3)nc12 [Compound 60]
> 150,,CCCCNc1c(-c2ccc(NC(=O)c3ccc(Cl)nc3)cc2)nc2c(C(=O)NCCCN3CCCC3=O)cccn12 [Compound 61]
< 50,,COc1ccc2c(c1)C(=O)C(c1nc3ccccc3s1)C2=O (stereo not drawn) [Compound 62]
51 to 100,,CN(C)/C=C(\C#N)c1nc2ccccc2[nH]1 [Compound 64]
> 150,,O=C(O)CCC(=O)Nc1cccc(-c2nc3cc4ccccc4cc3[nH]2)c1 [Compound 65]
101 to 150,,Cc1nc2cc3nc4c5cccc6cccc(c(=O)n4c3cc2[nH]1)c65 [Compound 66]
,< 50,COC(=O)CC(=O)Nc1ccccc1-c1nc2ccc(C(=O)NCc3ccc4c(c3)OCO4)cn2c1NC1CCCCC1 [Compound 84]
